What is called Ki is the dissociation constant of the complex between target and ligand, obtained from inhibition or displacement. The low end stands for a stronger hold on the target, the high end for a looser hold on the target. For orientation: Kb means the affinity of an antagonist, worked out from how it opposes an agonist. Read a high Kb as a less potent antagonist. For orientation: logP means the decadic logarithm of the partition coefficient of the neutral form, usually between octanol and water. A higher logP goes with a more lipophilic compound.

Ki, Kb and logP data for 20 compounds are collected here from ChEMBL document CHEMBL1123584, “Xanthine functionalized congeners as potent ligands at A2-adenosine receptors” (J Med Chem, 1987).

Data set [1] concerns the target T1, Adenosine receptor A1 (Rattus norvegicus, UniProt P25099).
T1 sequence (P25099 whole entry): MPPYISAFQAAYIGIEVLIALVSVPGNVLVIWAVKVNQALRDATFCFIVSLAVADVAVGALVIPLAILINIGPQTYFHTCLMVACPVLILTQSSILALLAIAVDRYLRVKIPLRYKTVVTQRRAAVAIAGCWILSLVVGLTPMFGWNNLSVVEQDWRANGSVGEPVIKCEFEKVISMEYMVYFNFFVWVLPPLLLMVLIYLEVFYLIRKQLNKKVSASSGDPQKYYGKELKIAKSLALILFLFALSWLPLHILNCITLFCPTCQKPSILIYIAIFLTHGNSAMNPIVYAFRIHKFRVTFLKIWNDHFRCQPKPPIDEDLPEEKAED
In words: Inhibition of [3H]- PIA binding at adenosine A1 receptor on rat cerebral cortex membranes. It is filed as cell membranes, Membrane.

For data set [2], the target named is T2, Adenosine A2 receptor (Homo sapiens) (UniProt P29275+P29274). Nature of the data set: Antagonism of NECA-induced stimulation of adenylate cyclase activity in human platelet membranes at A2-adenosine receptor. Type of data set: functional, cell membranes.
In data set [3] the target is T2, Adenosine A2 receptor (Homo sapiens). In words: Antagonism of NECA-induced stimulation of adenylate cyclase activity in human platelet membranes at A2-adenosine receptor; value ranges from 75-370. It is filed as functional, cell membranes.
For data set [4] the target is unchanged. In words: Antagonism of NECA-induced stimulation of adenylate cyclase activity in human platelet membranes at A2-adenosine receptor; value ranges from […]-[…]. It is filed as functional, cell membranes.
For data set [5] the target is unchanged. Nature of the data set: Antagonism of NECA-induced stimulation of adenylate cyclase activity in human platelet membranes at A2-adenosine receptor; value ranges from 106-173. Type of data set: functional, cell membranes.
The nature of data set [6]: Partition coefficient (logP). The following applies: octanol/water. It is filed as physicochemical.
The target in data set [7] is T2, Adenosine A2 receptor (Homo sapiens). In words: Antagonism of NECA-induced stimulation of adenylate cyclase activity in human platelet membranes at A2-adenosine receptor; value ranges from 17-30. Type of data set: functional, cell membranes.
The target is the same in data set [8]. Nature of the data set: Antagonism of NECA-induced stimulation of adenylate cyclase activity in human platelet membranes at A2-adenosine receptor; value ranges from 100-540. It is filed as functional, cell membranes.
For data set [9] the target is unchanged. In words: Antagonism of NECA-induced stimulation of adenylate cyclase activity in human platelet membranes at A2-adenosine receptor; value ranges from 30-54. Type of data set: functional, cell membranes.
Data set [10] has the same target. Nature of the data set: Antagonism of NECA-induced stimulation of adenylate cyclase activity in human platelet membranes at A2-adenosine receptor; value ranges from 54-98. Type of data set: functional, cell membranes.
Data set [11] has the same target. In words: Antagonism of NECA-induced stimulation of adenylate cyclase activity in human platelet membranes at A2-adenosine receptor; value ranges from 15-51. Type of data set: functional, cell membranes.
The target is the same in data set [12]. In words: Antagonism of NECA-induced stimulation of adenylate cyclase activity in human platelet membranes at A2-adenosine receptor; value ranges from 35-40. It is filed as functional, cell membranes.

Turning to `CCCn1c(=O)c2[nH]c(-c3ccc(OCC(=O)NCCNC(=O)[C@@H](N)CCCCN)cc3)nc2n(CCC)c1=O`, in data set [1], the Ki stood at 0.87 nM.
For `CCn1c(=O)c2nc(-c3ccccc3)[nH]c2n(CC)c1=O`, in data set [2], the Kb stood at 210 nM.
`CCC(=O)OCOc1ccc(-c2nc3c(=O)n(CC)c(=O)n(CC)c3[nH]2)cc1`: the antagonist equilibrium constant (Kb) in data set [3] stood at 170 nM.
Compound `CCn1c(=O)c2nc(-c3ccc(OCC(=O)Nc4ccc(C)cc4)cc3)[nH]c2n(CC)c1=O` gave a Kb in [4] of 100 nM.
In turn, `CCCn1c(=O)c2nc(-c3ccc(OCOC(=O)CC)cc3)[nH]c2n(CCC)c1=O` returned a Kb in [5] of 135 nM.
In turn, `CCn1c(=O)c2[nH]c(-c3ccc(OCC(=O)NCCN)cc3)nc2n(CC)c1=O` returned a logP in data set [6] of -0.06.
As for `Cn1c(=O)c2[nH]c(-c3ccc(OCC(=O)NCCN)cc3)nc2n(C)c1=O`, the logP in data set [6] is -0.63.
For `CCn1c(=O)c2nc(-c3ccc(OCC(=O)Nc4ccc(CC(=O)OC)cc4)cc3)[nH]c2n(CC)c1=O`, the Kb in data set [4] was 210 nM.
For `CCCn1c(=O)c2[nH]c(-c3ccc(OCC(=O)NCCN)cc3)nc2n(CCC)c1=O` [XANTHINE AMINE CONGENER], the logP in [6] was found to be 0.81.
`CCCn1c(=O)c2nc(-c3ccc(OCC(=O)OCC)cc3)[nH]c2n(CCC)c1=O` showed a Ki in data set [1] of 13 nM.
As for `CCn1c(=O)c2nc(-c3ccc(OCC(=O)NCCNC(=O)[C@@H](N)CCCCN)cc3)[nH]c2n(CC)c1=O`, in data set [7], the antagonist dissociation constant (Kb) came to 23 nM. For the same compound, in [6], the logP was -1.2.
The compound `CCn1c(=O)c2nc(-c3ccc(OCC(=O)NCCNC(=O)C(CCCCNC(=O)OCc4ccccc4)NC(=O)OC(C)(C)C)cc3)[nH]c2n(CC)c1=O` (stereo not drawn) gave a Kb in data set [8] of 230 nM.
For the compound `Cn1c(=O)c2nc(-c3ccccc3)[nH]c2n(C)c1=O`, the Kb in [2] is 1900 nM.
Compound `CCn1c(=O)c2nc(-c3ccc(OCC(=O)NCCN)cc3)[nH]c2n(CC)c1=O` displayed an antagonist equilibrium constant (Kb) in [4] of 21 nM.
With `CCOC(=O)COc1ccc(-c2nc3c(=O)n(CC)c(=O)n(CC)c3[nH]2)cc1`, the Ki in data set [1] was found to be 140 nM.
In turn, `Cn1c(=O)c2nc(-c3ccc(OCC(=O)NCCN)cc3)[nH]c2n(C)c1=O` showed a Kb in data set [9] of 40 nM.
`CCn1c(=O)c2nc(-c3ccc(OCC(=O)OC(C)C)cc3)[nH]c2n(CC)c1=O` showed a Kb in data set [10] of 73 nM. This compound returned a Ki in data set [1] of 90 nM.
In turn, `Cn1c(=O)c2nc(-c3ccc(OCC(=O)Nc4ccc(CC(=O)NCCN)cc4)cc3)[nH]c2n(C)c1=O` returned a Kb in data set [4] of 63 nM. Besides, the lipophilicity (logP) in [6] was -0.05.
As to `CCn1c(=O)c2nc(-c3ccc(OCC(=O)Nc4ccc(CC(=O)NCCN)cc4)cc3)[nH]c2n(CC)c1=O`, in data set [11], the Kb is 28 nM.
In the case of `CCCn1c(=O)c2nc(-c3ccc(OCC(=O)NCCNC(=O)[C@@H](N)CCCCN)cc3)[nH]c2n(CCC)c1=O`, the Kb in data set [12] worked out at 37 nM.
